From ChEMBL document CHEMBL5241097, “Synthetically-tailored and nature-derived dual COX-2/5-LOX inhibitors: Structural aspects and SAR” (Eur J Med Chem, 2021) come the findings set out here.

Structures are written as SMILES. ≈ marks a conversion by molar mass, not a printed value.

The target in assay [1] is T1, Prostaglandin G/H synthase 2 (Homo sapiens, UniProt P35354).
T1 sequence (P35354 whole entry): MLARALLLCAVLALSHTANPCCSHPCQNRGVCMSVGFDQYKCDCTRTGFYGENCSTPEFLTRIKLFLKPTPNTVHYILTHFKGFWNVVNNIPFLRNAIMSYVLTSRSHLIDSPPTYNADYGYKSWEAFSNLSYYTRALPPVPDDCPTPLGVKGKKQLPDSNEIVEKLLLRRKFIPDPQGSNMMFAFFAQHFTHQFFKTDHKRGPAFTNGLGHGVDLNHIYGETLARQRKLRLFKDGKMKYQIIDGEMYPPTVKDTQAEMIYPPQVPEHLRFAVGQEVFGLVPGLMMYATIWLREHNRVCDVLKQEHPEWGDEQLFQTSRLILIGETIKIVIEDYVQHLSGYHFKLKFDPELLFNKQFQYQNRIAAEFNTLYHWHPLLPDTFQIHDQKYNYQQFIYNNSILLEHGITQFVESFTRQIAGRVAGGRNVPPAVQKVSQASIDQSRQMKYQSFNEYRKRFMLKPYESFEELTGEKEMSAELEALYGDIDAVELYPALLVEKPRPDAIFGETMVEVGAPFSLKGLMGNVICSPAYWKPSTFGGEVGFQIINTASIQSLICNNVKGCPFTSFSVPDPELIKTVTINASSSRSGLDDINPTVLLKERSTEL
The assay can be described thus: Inhibition of COX-2 (unknown origin) by colorimetric method.

The target of assay [2] is T2, Polyunsaturated fatty acid 5-lipoxygenase (Homo sapiens, UniProt P09917).
T2 sequence (P09917 whole entry): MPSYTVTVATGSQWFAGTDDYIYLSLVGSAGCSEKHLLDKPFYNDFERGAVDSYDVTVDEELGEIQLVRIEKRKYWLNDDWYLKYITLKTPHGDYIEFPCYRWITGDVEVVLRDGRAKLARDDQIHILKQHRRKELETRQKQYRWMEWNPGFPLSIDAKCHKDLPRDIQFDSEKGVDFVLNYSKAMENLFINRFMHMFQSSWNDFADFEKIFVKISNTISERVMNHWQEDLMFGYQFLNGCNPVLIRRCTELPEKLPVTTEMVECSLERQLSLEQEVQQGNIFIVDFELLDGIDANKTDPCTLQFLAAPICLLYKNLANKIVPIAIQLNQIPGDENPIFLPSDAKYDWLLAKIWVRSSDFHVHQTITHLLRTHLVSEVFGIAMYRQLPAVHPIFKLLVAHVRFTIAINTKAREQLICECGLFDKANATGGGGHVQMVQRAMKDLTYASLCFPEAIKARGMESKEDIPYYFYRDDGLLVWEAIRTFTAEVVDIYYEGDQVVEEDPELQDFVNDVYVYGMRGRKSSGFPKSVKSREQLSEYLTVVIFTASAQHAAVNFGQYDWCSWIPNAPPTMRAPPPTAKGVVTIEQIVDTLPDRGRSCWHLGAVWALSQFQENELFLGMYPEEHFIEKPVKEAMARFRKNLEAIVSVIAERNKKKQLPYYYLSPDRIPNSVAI
The assay can be described thus: Inhibition of human 5-LOX by colorimetric assay.

Assay [3] has as its target T3, Prostaglandin G/H synthase 1 (Homo sapiens, UniProt P23219). Kind of assay: Inhibition of COX-1 (unknown origin) by enzyme immune assay.
The next assay concerns DLD-1. The assay can be described thus: Anticancer activity against human DLD-1 cells assessed as cell growth inhibition incubated for 3 hrs by Sulforhodamine B assay. Format: functional, cell-based. The conditions noted are these: DLD-1, 3 h. For orientation: In SRB staining, fixed cells bind dye roughly in proportion to their protein.
The target in assay [4] is T1, Prostaglandin G/H synthase 2. Kind of assay: Inhibition of COX-2 (unknown origin) by enzyme immune assay.
Another assay has as its system MCF7. The assay can be described thus: Anticancer activity against human MCF7 cells assessed as cell growth inhibition incubated for 3 hrs by Sulforhodamine B assay. The conditions noted are these: MCF7, 3 h. Type of assay: functional, cell-based.
The nature of assay [5]: Antioxidant activity assessed as DPPH radical scavenging activity by spectrophotometric analysis. Format: functional. (In general: The DPPH test is a chemical assay of radical scavenging.)
The target of assay [6] is T2, Polyunsaturated fatty acid 5-lipoxygenase. Kind of assay: Inhibition of 5-LOX (unknown origin) by spectrophotometric method.
The target in assay [7] is T1, Prostaglandin G/H synthase 2. The assay can be described thus: Inhibition of COX-2 (unknown origin) by 2,7-dichlorofluorescein dye based spectrophotometric method.
Assay [8] concerns the target T2, Polyunsaturated fatty acid 5-lipoxygenase. The assay can be described thus: Inhibition of recombinant human 5-LOX using arachidonic acid as substrate preincubated for 10 mins followed by substrate addition and measured after 10 mins by ELISA.
For assay [9], the target named is T1, Prostaglandin G/H synthase 2. The assay can be described thus: Inhibition of recombinant human COX-2 using arachidonic acid as substrate preincubated for 5 mins followed by substrate addition and measured after 20 mins by ELISA. On the technique in general: In an ELISA, binding on a coated surface is turned into a signal by an enzyme label.
For a further assay, the system named is Rattus norvegicus. Kind of assay: Antiinflammatory activity in Wistar rat assessed as reduction in carragenan-induced paw edema at 10 mg/kg, po for 7 days followed by carrageenan stimulation and measured upto 6 hrs by vernier caliper method. The conditions noted are these: time 7 day. Details: scale not given: the % may be the effect or the level left. Format: functional.

The species entered for a further assay is Homo sapiens. The assay can be described thus: Selectivity index, ratio of IC50 for inhibition of human COX1 to IC50 for inhibition of human COX2.
Assay [10] is described as follows: Inhibition of potato 5-LOX using linoleic acid as substrate preincubated for 5 mins followed by substrate addition and measured after 5 mins by spectrophotometric assay. Details: species or system Solanum tuberosum.
In assay [11] the target is T3, Prostaglandin G/H synthase 1. The assay can be described thus: Inhibition of human COX-1 using arachidonic acid as substrate preincubated for 10 mins followed by substrate addition and measured after 2 mins by ELISA.

T3 sequence (P23219 whole entry): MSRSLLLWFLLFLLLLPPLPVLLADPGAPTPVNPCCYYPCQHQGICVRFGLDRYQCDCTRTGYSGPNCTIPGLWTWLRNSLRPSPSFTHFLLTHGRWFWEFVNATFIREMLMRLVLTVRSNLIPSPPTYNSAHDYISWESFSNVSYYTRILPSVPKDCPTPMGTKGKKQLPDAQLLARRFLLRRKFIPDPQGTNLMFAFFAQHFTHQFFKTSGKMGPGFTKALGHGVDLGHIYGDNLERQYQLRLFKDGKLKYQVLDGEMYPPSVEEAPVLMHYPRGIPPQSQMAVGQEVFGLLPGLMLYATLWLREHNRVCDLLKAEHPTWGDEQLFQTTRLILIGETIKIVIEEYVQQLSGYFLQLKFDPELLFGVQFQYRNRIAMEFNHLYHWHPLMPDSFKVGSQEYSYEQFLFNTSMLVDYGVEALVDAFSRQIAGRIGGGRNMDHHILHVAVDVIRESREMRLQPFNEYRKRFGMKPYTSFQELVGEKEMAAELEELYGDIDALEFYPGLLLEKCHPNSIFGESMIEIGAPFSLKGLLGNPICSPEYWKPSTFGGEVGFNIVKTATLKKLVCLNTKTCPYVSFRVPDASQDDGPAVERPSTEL

The IC50 is the concentration needed to halve the response being measured. Consider `O=C1/C(=C/c2ccc(Cl)cc2)N=C(c2ccccc2)N1c1ccc(-c2nc3ccccc3o2)cc1`, for which the IC50 in assay [1] came out at 0.25 µM; in [2] it was 0.02 µM.

For the compound `C=C1CC[C@@H]2[C@H](CC2(C)C)C(=C)CC[C@H]1O`, the half-inhibitory concentration (IC50) in assay [3] is 395 µM; in the assay with DLD-1, 52.5 µg/mL (≈ 238 µM); in assay [4] it was 399 µM; in the assay with MCF7, 82 µg/mL (≈ 372 µM).

As to `CCC[C@H](O)CCOC(=O)CC[C@]1(C)C=CC[C@@H](C)[C@@]12C=CC(C)(CC)O2` (stereo not given in full), the IC50 in [5] was 590 µg/mL (≈ 1560 µM); in assay [6] it was 2030 µM; in [7], 1850 µM.

Take `COc1cc(/C=C/c2ccc(O)cc2)cc(OC)c1` [PTEROSTILBENE]: the 50% inhibitory concentration (IC50) in [8] came to 1.63 µM; in assay [9], 5.99 µM.

Turning to `Cc1ccc(-c2nc(N(c3ccccc3)c3ccccc3)sc2C(=O)c2cccs2)cc1`, in the assay on Rattus norvegicus, the Activity was 60.82%. Further, in the assay listed under Homo sapiens, the Ratio IC50 worked out at 61.7. The IC50 was determined as 0.38 µM in assay [10] and 5.55 µM in assay [11].

With `COc1cc(O)cc(/C=C/c2ccc(O)cc2)c1`, the IC50 in assay [8] came out at 4.01 µM; in assay [9] it was 0.25 µM.

With `CC[C@H](CO)[C@@](C)(O)C/C=C/C(C)(C)OC(=O)C[C@]1(C)C=CC[C@@H](C)[C@@]12C=CC(C)(CC)O2` (stereo not given in full), the IC50 in assay [5] is 540 µg/mL (≈ 1170 µM); in assay [6], 1620 µM; in [7] it was 1400 µM.
